These results are taken from patent publication US7651692B2, “Use of extracts of the plant Litchi chinensis sonn” (Cognis France S.A., priority 2001, dated 2010).

Where two headings read alike, the source gives them in different places.

For data set [1], the system named is human fibroblasts. Nature of the data set: Cell protecting effect against UV-A on human fibroblasts cultivated in vitro. Type of data set: cell-based. The settings on record: UV-A 20 J/cm^2; 0.0003% substance; level in % by comparison with the control. As for the experimental part:
Method: To carry out these tests, a defined culture medium containing the fibroblasts is inoculated with foetal calf serum and added to the plant extract (in the defined medium containing 10% fetal calf serum) 72 hours after inoculation.
After incubation for 48 hours at 37° C./5% CO2, the culture medium was replaced by saline solution (physiological NaCl solution) and the fibroblasts were exposed to a dose of UV-A (365 nm, 20 J/cm^2; tubes: MAZDA FLUOR TFWN40).
After the exposure to UV-A, the MDA level (malonaldialdehyde level) in the supernatant sodium chloride solution was quantitatively determined by reaction with thiobarbituric acid.

Data set [2] can be described thus: DPPH Test (chemical test, activity towards free radicals). The text has this: (§1) The first test substrate selected was diphenyl picryl hydrazyl (DPPH), a purple-red colored stable radical which changes into its colorless leuco derivative on contact with radical trappers. The change of color can be followed photometrically. The test results are set out in Table 3 (DPPH Test). In another test, the hydroxylation of salicylic acid by hydroxyl radicals (from the reaction of hydrogen peroxide with iron(III) ions and EDTA) was investigated as a reference system. This reaction can also be photometrically investigated because the hydroxylation product is reddish in color. The influence of the extracts on the formation of hydroxysalicylic acid was measured at an optical density of 490 nm. In a third and final test, xanthine oxidase was selected as the test system. Under oxidative tress, the enzyme converts purine bases, for example adenine or guanine, into […]. The oxygen radicals intermediately formed can be detected by reaction with luminol (via the luminescence) and quantitatively determined. The luminescence output diminishes in the presence of substances with radical-trapping properties.
For orientation: Loss of DPPH colour is used to gauge radical scavenging.

The next data set addresses xanthine oxidase. Nature of the data set: Luminol Test with xanthine oxidase (biochemical test).
Source text: as §1

A short description of data set [3]: Luminol + microperoxydase (biochemical test).
Data set [4] deals with human fibroblasts. Type of data set: cell-based. The protocol: Human fibroblasts were inoculated with 10% by weight fetal calf serum in a defined nutrient medium (DMEM=Dulbecco Minimum Essential Medium, a product of Life Technologie S.a.r.l.) and incubated for 24 h at 37° C. in a 5% CO2 atmosphere. The nutrient medium containing fetal calf serum was then replaced by a nutrient medium of DMEM without fetal calf serum. Active substance in the form of the two extracts of the pericarp of Litchi chinensis Sonn. was then added to this nutrient medium in various concentrations.

The nature of data set [5]: Fenton's reaction: hydroxylation of salicylic acid by hydroxyl radicals. The settings on record: formation of hydroxysalicylic acid, optical density 490 nm.
Source text: as §1

The subject of another data set is human keratinocytes. Nature of the data set: Cell protecting effect against UV-B in human keratinocytes cultivated in vitro. The conditions noted are these: UV-B 50 mJ/cm^2; 0.001% substance; level in % by comparison with the control. Type of data set: cell-based.
Data set [6] relates to human leucocytes (neutrophilic granulocytes). Nature of the data set: Anti-inflammatory activity: respiratory burst, released oxygen radicals. The settings on record: 0.001% by weight. Type of data set: cell-based. As for the experimental part: Method: Anti-inflammatory activity was studied on a cell line of human leucocytes (neutrophilic granulocytes). To this end, the cells were incubated with various concentrations of extracts of Example 1 to be tested, after which a respiratory burst was induced by yeast cell extract (“zymosan”) by activation of the cells for 30 mins. with 0.1 ml zymosan. The content of oxygen radicals intermediately formed was determined for 60 seconds by reaction with luminol via the luminescence and quantitatively evaluated. The luminescence yield falls in the presence of substances with radical-trapping properties. The percentage of released radicals was determined against a reference substance (Minocycline—a radical trapper). The results are expressed in % relative to the control. For control purposes, the number of intact cells was determined with a particle counter and is shown in % by comparison with the control.

In another data set the test system is elastase. As to the kind of experiment: Inhibition of elastase activity. The conditions noted are these: concentration 0.1 % (w/v). Type of data set: biochemical. As for the experimental part: Serine proteases, such as elastase for example, degrade elastin, proteoglycans and collagen and thus weaken the connective tissue. […] The incubation time was 30 mins. at room temperature. The inhibition was followed photometrically at 410 nm; 1′α1-antitrypsin was used as positive standard.

Another data set has as its target Human plasmin (Homo sapiens, UniProt P00747). Nature of the data set: Plasmin inhibition after addition of the synthetic substrate. Type of data set: biochemical. The settings on record: 50 μg/ml. The protocol:
Thereafter, either synthetic substrate, especially “Val-Leu-paranitroanilide”, a product of Chromogenix, or natural pro-MMP3 obtained from Merck-Eurolab was added to the mixture. In the case of the synthetic substrate, absorption at 405 nm was measured every 5 minutes over a period of 30 minutes and the release of paranitroanilines was thus determined.
The inhibition of enzymatic activity was tested against a control with no substrate and against a reference substance, more particularly Aprotinine, a product of Sigma.

A further data set has as its system MMP-1. Nature of the data set: Inhibition of collagenase synthesis: MMP-1 poured out by fibroblasts. Type of data set: cell-based, human. The conditions noted are these: 0.1 μm. The protocol: (§2) This test is used to evaluate the ability of the litchi extract to reduce the toxic effects of UV-A radiation on human fibroblasts cultivated in vitro. To this end, both the quantity of the enzyme MMP-1 (matrix metalloproteinase) poured out and the quantity of the natural enzyme inhibitor TIMP-1 are determined. UV-A radiation is used in this test because it can penetrate into the dermis and induce oxidative stress which leads to ageing of the skin.
(§3) To this end, the fibroblasts are cultivated in a precisely defined medium containing fetal calf serum. […] After further incubation for one day at 37° C./5% CO2, the culture medium is replaced by a salt solution and the fibroblasts are exposed to UV-A (15 J/cm^2, lamp: SOL500, Dr. Höhnle. filter: H1, radiometer: Vibert Lourmat). After the exposure, the fibroblasts are incubated for another two days. The MMO-1 and TIMP-1 contents of the supernatant medium are determined with an Amersham test kit (Kit No. RPN2610 and RPN2611). No extract was added to the control.

A further data set deals with TIMP-1. As to the kind of experiment: TIMP-1 poured out by fibroblasts. Type of data set: cell-based, human. The conditions noted are these: concentration not printed in this line. The protocol: as §2, §3
A further data set addresses T1, human MMP-1 (Homo sapiens, UniProt P03956).
T1 sequence (P03956 100-469): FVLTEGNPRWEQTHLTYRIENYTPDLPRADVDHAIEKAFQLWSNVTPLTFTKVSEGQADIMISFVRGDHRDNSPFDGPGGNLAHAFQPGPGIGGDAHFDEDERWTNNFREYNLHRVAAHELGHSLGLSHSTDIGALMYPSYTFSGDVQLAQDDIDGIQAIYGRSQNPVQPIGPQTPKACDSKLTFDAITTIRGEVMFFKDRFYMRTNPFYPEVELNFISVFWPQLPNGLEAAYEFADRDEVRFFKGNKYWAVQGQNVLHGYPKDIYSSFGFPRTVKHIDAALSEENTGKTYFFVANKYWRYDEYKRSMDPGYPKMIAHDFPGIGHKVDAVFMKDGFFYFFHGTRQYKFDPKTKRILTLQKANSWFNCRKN
As to the kind of experiment: Inhibition of collagenase activity (MMP-1). Type of data set: biochemical. The settings on record: concentration 50 nmol. As for the experimental part: After exposure to the sun, dermal fibroblasts of elderly people pour out collagenases—also known as matrix metalloprotease (MMP). […] The incubation time was 60 mins. at room temperature. The hydrolysis of the substrate was determined by fluorescence spectrometry at λem=393 nm (λex=328 nm). The […] TIMP-1 (MMP inhibitor occurring naturally in tissue) was used as the comparison standard.

Setting [7] is: After exposure to UV-A (15 J/cm^2).

Human plasmin, sequence (P00747 581-810 limits assumed): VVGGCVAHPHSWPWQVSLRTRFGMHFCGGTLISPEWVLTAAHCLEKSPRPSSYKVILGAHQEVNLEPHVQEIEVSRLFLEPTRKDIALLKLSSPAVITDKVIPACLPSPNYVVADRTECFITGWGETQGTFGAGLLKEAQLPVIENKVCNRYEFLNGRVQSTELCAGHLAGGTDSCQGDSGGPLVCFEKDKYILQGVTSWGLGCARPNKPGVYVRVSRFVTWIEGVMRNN
Human plasmin, sequence (P00747 97-580 partner limits assumed): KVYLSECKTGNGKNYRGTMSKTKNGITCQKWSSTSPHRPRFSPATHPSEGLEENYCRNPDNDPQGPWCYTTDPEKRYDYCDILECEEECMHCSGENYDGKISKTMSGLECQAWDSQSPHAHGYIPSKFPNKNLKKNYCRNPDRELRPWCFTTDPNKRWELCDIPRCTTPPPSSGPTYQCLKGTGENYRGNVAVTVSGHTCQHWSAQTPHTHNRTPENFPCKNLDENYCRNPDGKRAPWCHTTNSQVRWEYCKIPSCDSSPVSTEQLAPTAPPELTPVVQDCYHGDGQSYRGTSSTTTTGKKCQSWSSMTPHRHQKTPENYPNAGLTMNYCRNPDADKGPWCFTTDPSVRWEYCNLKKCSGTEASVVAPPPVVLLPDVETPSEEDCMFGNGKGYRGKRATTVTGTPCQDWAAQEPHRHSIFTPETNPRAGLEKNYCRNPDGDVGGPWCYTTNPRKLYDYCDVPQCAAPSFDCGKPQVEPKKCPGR
Method for human keratinocytes: Method: The effect of UV-B radiation was investigated in vitro in keratinocytes by determining the release of the cytoplasm enzyme LDH (lactate dehydrogenase). This enzyme serves as a marker for cell damage.
To carry out the tests, a defined medium containing fetal calf serum was inoculated with the keratinocytes and the plant extract (diluted with saline solution) was added 72 hours after the inoculation.
The keratinocytes were then exposed to a dose of UV-B (50 mJ/cm^2-tubes: DUKE FL40E).
After incubation for another day at 37° C./5% CO2, the LDH content in the supernatant was determined. The LDH (lactate dehydrogenase) content was determined by an enzyme reaction (kit used to determine LDH levels from Roche). The number of adhering keratinocytes was determined (after trypsin treatment) with a particle counter.

On to tocopherol, for which, in the data set on human fibroblasts [1], the Cell proteins was 97%, the GSH/protein came out at 78% and the MDA released stood at 11%. In data set [2], the “EC50 in %, DPPH Test” value stood at 0.0067%. Further, the “EC50 in %, Luminol” value at xanthine oxidase is “No effect up”. Moreover, the “EC50 in %, Luminol + microperoxydase” value in data set [3] is listed as “No effect up”. Moreover, the “EC50 in %, NBT” value in “NBT (biochemical test)” is listed as “No effect up”. For the same molecule, in the data set with human fibroblasts [4], the “LD50 in % (w/v), ATP” value is “Nt toxic up” and the “LD50 in % (w/v), Proteins” value is “Not toxic up”.

Consider `O=C1O[C@H]([C@@H](O)CO)C(O)=C1O` [Ascorbic acid], for which the “EC50 in %, DPPH Test” value in data set [2] worked out at 0.0013%. Moreover, in data set [5], the “EC50 in %, Fenton's reaction” value came out at 0.1%. The “EC50 in %, Luminol” value on xanthine oxidase was determined as 0.0006%. Also, the “EC50 in %, Luminol + microperoxydase” value in data set [3] is listed as 0.0058%. Besides, the “EC50 in %, NBT” value in “NBT (biochemical test)” is reported as 0.5909%. The “LD50 in % (w/v), ATP” value in the data set with human fibroblasts [4] (human fibroblasts, 3 days, intracellular ATP content) is listed as 0.0056 % (w/v). Besides, the “LD50 in % (w/v), Proteins” value in the data set on human fibroblasts [4] (human fibroblasts, 3 days, protein content (Bradford)) is recorded as 0.0055 % (w/v).

Consider `CC(=O)Oc1ccccc1C(=O)O` [aspirin], for which, in the data set on human keratinocytes, the LDH released came out at 68% and the No. of keratinocytes came out at 33%.

For the molecule `CN(C)c1ccc(O)c2c1C[C@H]1C[C@H]3[C@H](N(C)C)C(O)=C(C(N)=O)C(=O)[C@@]3(O)C(O)=C1C2=O` [Minocycline], in data set [6] (in % by comparison with the control), the “No. of intact cells” value was found to be 100%. Further, the “ROS content (%/control)” value in data set [6] (zymosan-induced respiratory burst) is on record as 28 %/control.

Consider “1′α1-Antitrypsin: natural elastase inhibitor used as positive standard”, for which, in the data set with elastase, the “Elastase inhibition in %” value amounted to 68%.

Regarding Aprotinine, the “% Inhibition compared with the control (plasmin)” value at Human plasmin was 100%.

Turning to `C[C@@H]1C[C@H]2[C@@H]3CCC4=CC(=O)C=C[C@]4(C)[C@@]3(F)[C@@H](O)C[C@]2(C)[C@@]1(O)C(=O)CO` [Dexamethasone], the MMP-1 poured out in the data set on MMP-1 (setting [7]) stood at 7 ng/mL; with MMP-1 (Without exposure to UV-A), 2 ng/mL. Also, the results for the TIMP-1 poured out with TIMP-1 (setting [7]) and with TIMP-1 (Without exposure to UV-A) were 19 ng/mL and 39 ng/mL, respectively.

With “TIMP-1: MMP inhibitor occurring naturally in tissue, used as the comparison standard”, the “MMP-1 Inhibition in %” value in the data set with human MMP-1 was 93%.
